Read-outs that look alike come from different tables or passages of the source.
Key:
[1] = target: Recombinant human Syk (amino acids 342-635), GST-Syk kinase fusion protein (Homo sapiens (Human), UniProt P43405); assay: Syk kinase test (Kinase Glo luminescence); assay type: biochemical
[2] = target: Recombinant human Aurora B (amino acids 1-344) (Homo sapiens (Human), UniProt Q96GD4); assay: Aurora B kinase test (ADP Glo luminescence); assay type: biochemical
[3] = target: FLT3 (Homo sapiens (Human), UniProt P36888); assay: FLT3 kinase test (Z'-LYTE); assay type: biochemical
Chain of FLT3 (P36888 27-993): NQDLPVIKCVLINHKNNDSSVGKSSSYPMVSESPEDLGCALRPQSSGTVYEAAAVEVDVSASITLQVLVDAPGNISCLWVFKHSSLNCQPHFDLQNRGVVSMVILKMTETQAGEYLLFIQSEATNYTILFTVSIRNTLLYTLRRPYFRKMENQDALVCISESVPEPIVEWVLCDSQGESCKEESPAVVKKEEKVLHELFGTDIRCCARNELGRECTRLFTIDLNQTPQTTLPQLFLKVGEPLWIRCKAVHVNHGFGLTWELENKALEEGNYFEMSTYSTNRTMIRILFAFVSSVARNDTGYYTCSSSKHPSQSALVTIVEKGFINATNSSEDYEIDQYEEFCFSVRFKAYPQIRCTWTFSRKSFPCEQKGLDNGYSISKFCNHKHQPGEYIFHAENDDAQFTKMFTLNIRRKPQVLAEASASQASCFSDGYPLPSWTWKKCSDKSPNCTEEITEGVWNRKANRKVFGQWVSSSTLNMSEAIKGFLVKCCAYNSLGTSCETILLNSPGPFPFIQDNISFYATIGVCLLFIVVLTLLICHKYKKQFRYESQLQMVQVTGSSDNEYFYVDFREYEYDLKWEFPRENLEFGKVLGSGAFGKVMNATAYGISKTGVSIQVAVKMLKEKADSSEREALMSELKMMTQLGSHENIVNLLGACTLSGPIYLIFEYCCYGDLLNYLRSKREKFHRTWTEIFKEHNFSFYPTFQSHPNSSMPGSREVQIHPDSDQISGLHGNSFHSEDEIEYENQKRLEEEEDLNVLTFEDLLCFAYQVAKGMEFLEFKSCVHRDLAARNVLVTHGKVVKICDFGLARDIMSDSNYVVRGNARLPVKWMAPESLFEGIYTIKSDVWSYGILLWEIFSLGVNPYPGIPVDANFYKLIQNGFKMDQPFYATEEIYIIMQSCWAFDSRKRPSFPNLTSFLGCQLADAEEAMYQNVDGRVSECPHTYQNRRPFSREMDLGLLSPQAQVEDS
How it was run: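 Z'-LYTE FRET format; kinase reaction started with ATP, run 1 h at room temperature, then 1 h development before stop reagent. Controls without compound, without kinase, and phosphopeptide as 100% phosphorylation reference; values reported in M.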

[4] = target: Human GSK3beta (Homo sapiens (Human), UniProt P49841); assay: GSK 3beta kinase test (Z'-LYTE); assay type: biochemical; settings: read-out: IC50 in μM (GSK3beta-Inhibition)
Chain of Human GSK3beta (P49841 whole entry): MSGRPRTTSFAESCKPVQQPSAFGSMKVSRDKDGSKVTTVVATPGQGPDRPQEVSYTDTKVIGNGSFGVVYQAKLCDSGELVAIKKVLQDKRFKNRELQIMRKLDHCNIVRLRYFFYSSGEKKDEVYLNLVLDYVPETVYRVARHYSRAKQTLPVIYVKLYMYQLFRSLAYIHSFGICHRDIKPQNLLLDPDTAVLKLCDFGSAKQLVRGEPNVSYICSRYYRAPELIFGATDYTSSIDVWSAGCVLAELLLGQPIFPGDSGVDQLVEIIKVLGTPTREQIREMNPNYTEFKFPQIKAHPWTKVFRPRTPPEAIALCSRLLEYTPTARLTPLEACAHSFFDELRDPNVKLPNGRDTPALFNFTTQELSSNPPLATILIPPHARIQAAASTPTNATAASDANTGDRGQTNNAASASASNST
Method: Human GSK3beta (expressed and prified from SF21 cells) is obtained from the University Dundee/Scotland (Dr. James Hastie—Dept. of Biochemistry) in 50 mM Tris (pH7.5); 150 mM NaCl; 0.1 mM EGTA, 270 mM Succrose, 0.1% β-mercaptoethanol, 1 mM benzamidine, 0.2 mM PMSF; sequence see below). The enzyme is diluted to 3.56 μM (168 μg/ml) in enzyme dilution buffer and 6 μl aliquots are stored at −80° C.
The activity of GSK3 kinase protein is measured using the Z′-LYTETM assay technology from Invitrogen (# PV3324).
The assay is performed in 384 black plates from Corning (#3676) in a final volume of 10 μl by adding 5 μl of kinase peptide mix and 2.5 μl of compound dilution. The reaction is started by addition of 2.5 μl of the 4×ATP solution.
Positive controls are reaction mixtures containing no test compound; negative controls (blanks) are reaction mixtures containing no ATP. As a further control, the phosphopeptide solution is added to wells without kinase and without ATP (=100% phosphorylation control).
The non inhibited kinase reaction will result in a phosphorylation corresponding to 20%-30% of the phosphorylation control.
The reaction is performed 1 h at room temperature. After 1h 5 μl of the development solution is added. After a further incubation for 1 h at room temperature 5 μl of the stop reagent is added. Finally the plates are read on a Flex Station II 384 (Molecular Devices).
The output text file is evaluated in an “MS-Excel—VB-Makro” and “GraphPadPrism” (Version 5) (GraphPad Software Inc.) is used to calculate the results. Data for the inhibition of GSK3beta are reported in M. data for the inhibition of the protease are reported in % CTL.

[5] = Human liver microsomal stability test; assay type: in vitro ADME; settings: human liver microsomes
Method: The metabolic degradation for a specific SYK-inhibitor is performed at 37° C. with pooled human liver microsomes (human liver microsomes are commercially available as “BD UltraPool™” by Corning Life Sciences, Fogostraat 12, 1060 LJ Amsterdam, The Netherlands). The final incubation volume of 100 μl per time point contains TRIS buffer pH 7.6 at RT (0.1 M), magnesium chloride (5 mM), microsomal protein (1 mg/ml) and the test compound at a final concentration of 1 μM.
Following a short preincubation period at 37° C., the reaction is initiated by addition of beta-nicotinamide adenine dinucleotide phosphate in its reduced form (NADPH, 1 mM) and terminated by transfering an aliquot into solvent after different time points. Additionally, the NADPH-independent degradation is monitored in incubations without NADPH, terminated at the last time point.
The quenched (terminated) incubations are then pelleted by centrifugation (10000 g, 5 min).
An aliquot of the supernatant is assayed by LC-MS/MS for the remaining amount of parent compound. The half-life (t1/2 INVITRO) is determined by the slope of the semilogarithmic plot of the concentration-time profile.
The intrinsic clearance (CL_[…]) is calculated by considering the amount of protein in the incubation: CL_[…][μl/min/mg protein]=(Ln 2/(t1/2 INVITRO[min]*protein content[mg/ml]))*1000
The protein content [mg/ml] was determined with the “Bicinchoninic Acid Kit” of Sigma Aldrich (commercially available).
The upscaled intrinsic Clearance (CL_UP_INT) is calculated by considering the liver weight [g liver/kg body weight] and the microsomal recovery [mg protein/g liver]: CL_UP_INT[ml/min/kg]=0.001*CL_[…]*liver weight*microsomal recovery • with microsomal recovery=45 mg protein/g liver • with liver weight=25.7 g liver/kg body weight
The percent hepatic blood flow (% Qh) is finally calculated by considering the human liver blood flow Q [ml/min/kg]: % Qh[%]=((Q*CL_UP_INT)/(Q+CL_UP_INT)/Q)*100 • with liver blood flow (Q)=20.7 ml/min/kg.

[6] = read-out: IC50 in μM (SYK-Inhibition)
[7] = read-out: IC50 in μM (AURB-Inhibition)
[8] = read-out: IC50 in μM (FLT3-Inhibition)
[9] = Table 1, read-out: SYK-inhibition IC50-value
[10] = Table 1, read-out: AURB-inhibition IC50-value
[11] = Table 1, read-out: FLT3-inhibition IC50-value
[12] = Table 2a, read-out: IC50 in μM (SYK-Inhibition)
[13] = Table 2a, read-out: IC50 in μM (AURB-Inhibition)
[14] = Table 2a, read-out: IC50 in μM (FLT3-Inhibition)

Chain of Recombinant human Aurora B (amino acids 1-344) (Q96GD4 whole entry, the tested form may be a part): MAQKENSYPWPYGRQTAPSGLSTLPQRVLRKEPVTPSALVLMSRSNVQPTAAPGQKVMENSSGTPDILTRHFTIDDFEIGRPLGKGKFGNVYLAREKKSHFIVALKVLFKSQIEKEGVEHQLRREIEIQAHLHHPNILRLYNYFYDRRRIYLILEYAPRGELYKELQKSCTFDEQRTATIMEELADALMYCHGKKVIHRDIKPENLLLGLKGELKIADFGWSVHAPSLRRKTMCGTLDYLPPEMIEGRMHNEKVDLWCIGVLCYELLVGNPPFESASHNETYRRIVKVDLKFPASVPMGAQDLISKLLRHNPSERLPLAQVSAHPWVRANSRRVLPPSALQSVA

| IC50 [1, 6] [µM] | IC50 [2, 7] [µM] | IC50 [3, 8] [µM] | IC50 [4] [µM] | microsomal stability Cl [% Qh] ([5]; Qh = liver blood flow) | IC50 [1, 9] [µM] | IC50 [2, 10] [µM] | IC50 [3, 11] [µM] | IC50 [1, 12] [µM] | IC50 [2, 13] [µM] | IC50 [3, 14] [µM] | IC50 ([4]; Table 2a) [µM] | microsomal stability Cl [% Qh] ([5]; test compound 1 μM, Table 2a) | Compound |
| --- | --- | --- | --- | --- | --- | --- | --- | --- | --- | --- | --- | --- | --- |
| 0.013 | 2.63 | 2.27 | > 10 | 54 | – | – | – | – | – | – | – | – | COc1cc(-c2cc(O[C@H](C)[C@H]3CNC(=O)C3)c3cccnc3c2)ccc1C(F)(F)F [102 of WO 2013/014060] |
| 0.001 | 0.479 | 0.309 | > 10 | 64 | – | – | – | – | – | – | – | – | Cc1nc2cc(-c3cc(O[C@H](C)[C@H]4CNC(=O)C4)c4cccnc4c3)ccc2n1C [105 of WO 2013/014060] |
| 0.009 | 1.82 | 1.76 | > 10 | 38 | – | – | – | – | – | – | – | – | Cc1nc(C)c2cc(-c3cc(O[C@H](C)[C@H]4CNC(=O)C4)c4cccnc4c3)ccc2n1 [107 of WO 2013/014060] |
| 0.001 | 0.26 | 0.33 | > 10 | 41 | – | – | – | – | – | – | – | – | Cc1nc2cc(-c3cc(O[C@H](C)[C@H]4CNC(=O)C4)c4cccnc4c3)ccc2[nH]1 [109 of WO 2013/014060] |
| 0.016 | > 50 | 3.99 | > 10 | <23 | 0.016 | > 50 | 3.99 | – | – | – | – | – | COc1ccc(-c2cc3nn(C)cc3c(O[C@H](C)[C@H]3CNC(=O)C3)n2)cc1OC [Example 1, (4R)-4-[(1R)-1-[6-(3,4-Dimethoxyphenyl)-2-methyl-pyrazolo[4,3-c]pyridin-4-yl]oxyethyl]pyrrolidin-2-one] |
| – | – | – | – | – | 0.0144 | > 50 | 14.8 | 0.0144 | > 50 | 14.8 | > 10 | <23 | C[C@@H](Oc1nc(-c2cnn(C(C)(C)C)c2)cc2nn(C)cc12)[C@H]1CNC(=O)C1 [Example 2, (4R)-4-[(1R)-1-[6-(1-tert-Butylpyrazol-4-yl)-2-methyl-pyrazolo[4,3-c]pyridin-4-yl]oxyethyl]pyrrolidin-2-one] |
| – | – | – | – | – | 0.0046 | > 50 | 13.4 | 0.0046 | > 50 | 13.4 | > 10 | <23 | C[C@@H](Oc1cc(-c2cnn(C(C)(C)C)c2)cc2nn(C)cc12)[C@H]1CNC(=O)C1 [Example 18, (4R)-4-[(1R)-1-[6-(1-tert-butylpyrazol-4-yl)-2-methyl-indazol-4-yl]oxyethyl]pyrrolidin-2-one] |
| 0.0258 | > 50 | 0.95 | > 10 | <23 | 0.0258 | > 50 | 0.95 | – | – | – | – | – | C[C@@H](Oc1cc(-c2ccc(N3CCN(C)CC3)cc2)cc2nn(C)cc12)[C@H]1CNC(=O)C1 [Example 26, (4R)-4-[(1R)-1-[2-methyl-6-[4-(4-methylpiperazin-1-yl)phenyl]indazol-4-yl]oxyethyl]pyrrolidin-2-one] |
| 0.138 | > 50 | 26.6 | > 10 | <23 | 0.138 | > 50 | 26.6 | – | – | – | – | – | CC(C)Oc1ccc(-c2cc(O[C@H](C)[C@H]3CNC(=O)C3)c3cn(C)nc3c2)cn1 [Example 27, (4R)-4-[(1R)-1-[6-(6-isopropoxy-3-pyridyl)-2-methyl-indazol-4-yl]oxyethyl]pyrrolidin-2-one] |
| 0.0335 | > 50 | 3.69 | > 10 | <23 | 0.0335 | > 50 | 3.69 | – | – | – | – | – | C[C@@H](Oc1cc(-c2ccc3c(cnn3C)c2)cc2nn(C)cc12)[C@H]1CNC(=O)C1 [Example 28, (4R)-4-[(1R)-1-[2-methyl-6-(1-methylindazol-5-yl)indazol-4-yl]oxyethyl]pyrrolidin-2-one] |
